Reference: US5846742A, “Selecting substances for treating glucocorticoid-mediated inflammation or immune diseases using Tripterygium wilfordii Hook F extracts” (Board of Regents, The University of Texas System, priority 1997, dated 1998)

How the values were obtained:
Fibroblasts = assay type: cell-based, human; details: triptolide 10 ng/ml
Protocol: The cells were assayed for cell viability by using a cytoflowmeter (FACSCAN) after the cells were stained with propidium iodine.

B cells = assay: SA-induced B cell DNA synthesis / Ig production, triptolide; assay type: cell-based, human; details: for SA-induced B cell DNA synthesis (3H-thymidine incorporation): control 7,900
From the text: Other components of Tripterygium wilfordii Hook F include: […]

lymph cells = details: concanavalin A; cited from earlier work
[1] = system: human GR (COS-7 cells, MMTV-luciferase); assay: GR mediated MMTV-luciferase gene activation; assay type: cell-based; details: for GR-mediated target gene activation: purified TwHF compounds
Protocol: Cell transfections and assays of GR mediated gene activation. COS-7 cells were maintained in culture in DMEM-10% bovine calf serum. […] Cells were plated at 10^6 cells per 10 cm plate. Twenty-four hours later, the cells were transfected with 500 ng pRShGrα, a GR expression vector (obtained from the Salk Institute, La Jolla, Calif.) and 10 μg of pMMTV-luciferase, a synthetic reporter gene. However, other expression vectors and synthetic reporter genes available to those of skill in the art may be used for transfection. The vector pMMTV-luciferase contains the luciferase gene under regulatory control of glucocorticoid-inducible elements in the MMTV-long terminal repeat. Cells were transfected using the calcium-phosphate precipitation technique (mammalian transfection kit, Stratagene, La Jolla, Calif.). […] Twenty-four hours later, the cells were washed, harvested, and lysates prepared by three cycles of freeze/thawing. The lysates were cleared by centrifugation at 12,000×g for 5 minutes; aliquots were assayed for protein content and equal amounts of proteins were used for luciferase assays.
COS-7 cells were transfected with a human GR expression vector and the MMTV-luciferase reporter gene construct. A parallel set of plates was transfected with the constitutively active RSV-luciferase construct. […] Cells were lysed after 24 hours and assayed for luciferase activity.

T cells [2] = assay: PHA-induced T cell DNA synthesis, triptolide; assay type: cell-based, human; details: for PHA-induced T cell DNA synthesis (3H-thymidine incorporation): control 93,400
T cells [3] = assay: PHA-induced T cell proliferation, wilforonide (924); assay type: cell-based, human; details: at the level of ngs
From the text: The molecular groups responsible for the immune suppressive function of these compounds are unknown, however, the core structure of diterpenoids which may be related to their activity consists of an α-β-unsaturated 5 element lactone which can be identified by Kedde reagents. HPLC was used to fractionate the ethyl acetate extract of TwHF and the Kedde reagents were employed to trace the fractions. Then, the effect of selected fractions on the in vitro IL-2 production and [^3 H]-thymidine incorporation by PHA-activated T cells was determined. Fractions that inhibit these T cell functions were selected and the chromatographic pattern was identified with HPLC. One fraction was further purified with HPLC and crystallized repeatedly; a pure, crystallized compound was obtained and designated "924".
[^3 H]-thymidine was added for the last 14 hours of culture. Each concentration was run in quadruplicate (4 times) and the results for each concentration averaged to provide a mean. The mean cpm×10^3 values were combined and expressed as a percent of T cell inhibition.
or absence of the indicated concentrations of wilforonide for 3 days.
[^3 H]-Thymidine was added for the last 14 hours. Data are from 4
independent experiments.

mouse spleen cells = details: high concentrations; cited from earlier work
IDH4 cells = assay type: cell-based, human; details: 72 hours, FIG. 25
Protocol: IDH4 cells, that express endogenous glucocorticoid receptors, were produced by transfecting human fibroblasts with a plasmid containing the MMTV-long terminal repeat driving the SV40 large T antigen. Since extended growth of these cells is dependent on expression of the large T antigen, these cells require exogenous glucocorticoid to maintain proliferation.
[^3 H]-Thymidine was present for the last 16 h. Data represent the mean k inhibition of [^3 H]-thymidine incorporation of three replicate determinations of three separate experiments.

[4] = system: PGE2 production by human monocytes (COX-2); assay: Endotoxin induced PGE2 production by monocytes (COX-2); assay type: cell-based; details: LPS 10 μg/ml, 18 hours, FIG. 29
Protocol: After 18 hours of incubation, cell-free supernatants were collected and assayed for PGE2 content with a radioimmunoassay kit (Amersham), as described by the manufacturer. Data represent the mean of two replicate determinations of two separate experiments. […] Human monocytes produce prostaglandinE2 (PGE2) when stimulated with bacterial endotoxin.

| Compound | Lymph cell proliferation (lymph cells) | GR-mediated target gene activation [1] | Immunosuppressive action (T cells [3]) | Dexamethasone dependent growth of IDH4 cells (IDH4 cells) | Endotoxin induced PGE2 production / COX-2 induction [4] | other results |
| --- | --- | --- | --- | --- | --- | --- |
| CC(C)[C@]12O[C@H]1[C@@H]1O[C@]13[C@]1(O[C@H]1C[C@H]1C4=C(CC[C@@]13C)C(=O)OC4)[C@@H]2O [Triptolide, triptolide] | inhibit the proliferation of lymph cells induced by concanavalin A | inhibited target gene activation by GR | potent immunosuppressive action | – | – | Toxicity to fibroblasts (Fibroblasts): toxic to fibroblasts; SA-induced B cell DNA synthesis (3H-thymidine incorporation) (B cells; 0.1 ng/ml): 2,000 CPM; SA-induced B cell DNA synthesis (3H-thymidine incorporation) (B cells; 1.0 ng/ml): 100 CPM; B lymphocyte proliferation (B cells; 0.1-1.0 ng/ml): inhibited proliferation of both T and B lymphocytes profoundly; Immunoglobulin production, mitogen stimulated B lymphocytes (B cells; in vitro): inhibited the in vitro production of immunoglobulin from mitogen stimulated human B lymphocytes at comparably small concentrations; PHA-induced T cell DNA synthesis (3H-thymidine incorporation) (T cells [2]; 0.1 ng/ml): 24,200 CPM; PHA-induced T cell DNA synthesis (3H-thymidine incorporation) (T cells [2]; 1.0 ng/ml): 100 CPM; T lymphocyte proliferation (T cells [2]; 0.1-1.0 ng/ml): inhibited proliferation of both T and B lymphocytes profoundly; Lymphocyte proliferation and IL-2 production (mouse spleen cells): suppress B and T lymphocyte proliferation and interleukin-2 production by mouse spleen cells |
| CC(C)c1ccc2c(c1O)CC[C@H]1C3=C(CC[C@]21C)C(=O)OC3 [Triptophenolide, triptophenolide] | – | far less potent | – | less active and its activity was not generally correlated with dosage | – | Immunosuppressive activity relative to triptolide or tripdiolide [1]: much less immunosuppressive than triptolide or tripdiolide |
| CC(C)[C@]12O[C@H]1[C@@H]1O[C@]13[C@]1(O[C@H]1C[C@H]1C4=C(C(=O)OC4)[C@@H](O)C[C@@]13C)[C@@H]2O [Tripdiolide, tripdiolide] | – | inhibited target gene activation by GR | potent immunosuppressive action | inhibited dexamethasone dependent growth of IDH4 cells in a concentration dependent manner | inhibited by the extract of TwHF and its purified immunosuppressive component, tripdiolide | – |
| CC(C)[C@]12O[C@H]1[C@@H]1O[C@@]13[C@@]1(C)CCC4=C(COC4=O)[C@@H]1C[C@@H]1O[C@@]13C2=O [Triptonide, triptonide, reference compound] | inhibit the proliferation of lymph cells induced by concanavalin A | – | – | – | – | – |
| CC#C[C@]1(O)CC[C@H]2[C@@H]3CCC4=CC(=O)CCC4=C3[C@@H](c3ccc(N(C)C)cc3)C[C@@]21C [RU486, reference compound] | – | – | – | – | inhibits endotoxin-induced PGE2 production by human peripheral blood monocytes, however, it is not as effective as the TwHF extract at lower concentrations | – |
